Results as given in article PMC12656566, “Toxicokinetic Characterization of MDM Hydantoin via Stable Metabolite DMH: Population Modeling for Predicting Dermal Formaldehyde Formation” (Toxics, 2025).
Where two headings read alike, the source gives them in different places.

How the values were obtained:
[1] = Population toxicokinetic modeling of MDMH and DMH plasma data (IV and TD); type: in vivo; settings: population estimate, rats; for Vd / clearance: male, Sprague-Dawley, rat, plasma, other: intravenous and transdermal data pooled
Description: POP-TK modeling was performed to develop a compartment model describing the disposition of MDMH and DMH following different administration routes. Plasma concentration data from all studies were combined for model development.
The compartment model was designed to fit the absorption phase following TD application, disposition kinetics of MDMH and DMH following IV injection. The disposition phase of MDMH was described with a one-compartment model.
For transdermal application, MDMH applied to the skin undergoes simultaneous absorption and metabolic conversion to DMH and formaldehyde. This process was described by a first-order rate constant (ka,met) representing the combined absorption-metabolism kinetics. The parameter Fa,met represents the fraction of applied dose that penetrates the skin and undergoes metabolic conversion, accounting for incomplete absorption.
DMH formed in the skin compartment subsequently undergoes absorption into systemic circulation. This absorption was modeled using a first-order rate constant (ka,DMH) with three transit compartments to describe the delayed appearance of DMH in plasma.
The disposition of MDMH and DMH was assessed using a linear model with a central and one, two, or three peripheral compartments. The model incorporated both skin metabolism and systemic metabolism of MDMH to DMH. Systemic metabolism was described by the […], representing the fraction of eliminated MDMH that is converted to DMH in the central compartment. Molecular weight correction was applied to account for stoichiometric conversion relationships.
The final disposition and elimination compartment model was determined to use one central compartment for MDMH and one central and one peripheral compartment for DMH based on the objective function.
The differential equations for the amounts of MDMH in the central (XCentral,MDMH) compartments and DMH in the central (XCentral,DMH) and peripheral (XPeripheral,DMH) compartments were:(7) dXCentral,MDMH/dt=−CLMDMH·CCentral,MDMH (8) dXCentral,DMH/dt=−CLDMH·CCentral,DMH−CLDDMH·CCentral,DMH+CLDDMH·CPeripheral,DMH+ka,DMH·XTransit3,DMH+(MWDMH/MWMDMH)·CLMDMH·CCentral,MDMH (9) dXPeripheral,DMH/dt=+CLDDMH·CCentral,DMH−CLDDMH·CPeripheral,DMH
CCentral,MDMH and CCentral,DMH represent MDMH and DMH plasma concentrations in respective compartments and CPeripheral,DMH represent DMH concentration in peripheral compartment. CLMDMH and CLDMH were systemic clearance of MDMH and DMH and CLDDMH was distribution clearance.
The plasma concentrations of MDMH and DMH were simultaneously modeled and predicted using POP-TK modeling with the stochastic approximation expectation maximization (SAEM) algorithm in the parallelized Monolix® 2023R1 (Lixoft, Antony, Paris, France) and Berkeley Madonna version 8.3.11 (University of California at Berkeley, Berkeley, CA, USA). An importance sampling SAEM was used for population parameter estimation to describe the between-subject variability (BSV) for each parameter estimate.

[2] = Stability of MDMH and DMH in rat plasma and processed samples; type: in vitro ADME; settings: n = 5; for Processed sample stability: autosampler at 4 °C for 24 h; for Short-term stability / Freeze–thaw stability / Long-term stability: rat plasma; for Short-term stability: room temperature (25 °C) for 4 h; for Freeze–thaw stability: three freeze–thaw cycles; for Long-term stability: −20 °C for 4 weeks
Description: Short-term stability of MDMH and DMH in rat plasma was evaluated at room temperature for 4 h. Long-term stability was assessed following storage at −20 °C for 4 weeks. Freeze–thaw stability was determined after three freeze–thaw cycles. Additionally, processed sample stability was evaluated in the autosampler at 4 °C for 24 h. Stability was considered acceptable when the mean deviation from theoretical concentrations was within ±15%.
Stability studies were conducted using five replicates of low and high quality control samples under various analytical conditions, with results shown in Table 3. Short-term stability was evaluated at room temperature (25 °C) for 4 h, showing mean recoveries within acceptable limits for both analytes. Long-term stability was assessed following storage at −20 °C for 4 weeks, with recoveries remaining within ±15% of theoretical concentrations. Freeze–thaw stability was evaluated after three freeze–thaw cycles. Processed sample stability in the autosampler at 4 °C for 24 h was also within acceptable ranges.

Compound	Vd ([1]; Mean (BSV), read-out: Central volume of distribution for DMH (Vc,DMH)) [L]	clearance ([1]; Mean (BSV), read-out: Clearance for DMH (CLDMH) (converted)) [mL/min]	Absorption rate constant for DMH into the central compartment from skin (ka,DMH) ([1]; Mean (BSV))	Distribution clearance for DMH (CLDDMH) ([1]; Mean (BSV))	Peripheral volume of distribution for DMH (Vp,DMH) ([1]; Mean (BSV))	absorption rate constant for DMH (ka,DMH) [1] [h⁻¹]	Processed sample stability ([2]; High QC) [%]	Processed sample stability ([2]; Low QC) [%]	Short-term stability ([2]; High QC) [%]	Short-term stability ([2]; Low QC) [%]	Freeze–thaw stability ([2]; High QC) [%]	Freeze–thaw stability ([2]; Low QC) [%]	Long-term stability ([2]; High QC) [%]	Long-term stability ([2]; Low QC) [%]	Vd ([1]; Mean (BSV), read-out: Central volume of distribution for MDMH (Vc,MDMH)) [L]	clearance ([1]; Mean (BSV), read-out: Clearance for MDMH (CLMDMH) (converted)) [mL/min]	Absorption-metabolism rate constant for MDMH in skin (Ka,met) ([1]; Mean (BSV))	combined absorption-metabolism rate constant (ka,met) [1] [h⁻¹]
CC1(C)NC(=O)NC1=O [DMH, 5,5-dimethylhydantoin]	0.32	3.17	8.03 (38.33) 1/h	5.73 (71.8) L/h	0.43 (35.86) L	8.03	113.2 ± 1.5	90.9 ± 6.9	101.0 ± 1.9	102.0 ± 1.4	93.2 ± 5.8	89.3 ± 3.8	112.0 ± 3.2	106.2 ± 4.3	–	–	–	–
CC1(C)C(=O)NC(=O)N1CO [MDMH, 1-(Hydroxymethyl)-5,5-dimethylhydantoin]	–	–	–	–	–	–	112.0 ± 3.5	98.9 ± 4.7	99.7 ± 1.3	102.6 ± 1.5	94.0 ± 1.8	90.1 ± 4.1	109.0 ± 3.9	110.4 ± 1.1	1.18	2460	0.31 (6.44) 1/h	0.31
